Source: US10806790B1, “Pain therapy cream with deep tissue delivery system” (priority 2013, dated 2020)

Columns and labels:
[1] = test system: symptoms of primary osteoarthritis (OA) of the knee; assay: 12-week randomized, double-blind, double-dummy, parallel-group comparative study; WOMAC osteoarthritis index (VAS) efficacy; assay type: in vivo, patients (men and nonpregnant women)
Procedure: (§1) The purpose of this study was to compare the safety and efficacy of a topical cream (CellMedics®) containing 0.075% w/w capsaicin and 5% w/w Harpagophytum extract vs. oral diclofenac 50 mg tablets over a 12-week treatment course in relieving the symptoms of primary osteoarthritis (OA) of the knee, in a randomized, double-blind, double-dummy, parallel-group study. Eligible patients included men and nonpregnant women between the ages of 45-75 with symptomatic OA of the knee of at least three months duration. All patients had knee OA as defined by the American College of Rheumatology global functional class I, II, or III. […] Concomitant use of other analgesic medications was prohibited during the study. The protocol was a 12-week, randomized, double-blind, double-dummy, parallel-group comparative study. Patients were assessed at the initial screening visit and those who met the entry criteria discontinued NSAID treatment for a washout period of 3-10 days before the baseline visit. Following the screening and washout periods, each eligible patient attending the baseline visit was assigned a numbered study kit at the clinic. Study kits contained one of 2 randomly assigned treatments: (1) vehicle cream (CellMedics®) containing 0.075% w/w capsaicin and 5% w/w Harpagophytum extract (topical Harpagophytum) plus oral placebo tablet; or (2) diclofenac 50 mg tablet (oral diclofenac) plus a topical placebo cream (vehicle cream with no actives). Patients were instructed to apply a single 3 g measured dose of cream (150 mg of Harpagophytum and 2.25 mg of capsaicin in the active cream) from a metered pump dispenser around the affected knee and take a study tablet orally, 3 times daily for 12 weeks. […] The WOMAC osteoarthritis index, version 3.1 visual analog scale (VAS) was used to assess response to treatment at baseline and after week 12. Patients answered the WOMAC subscales of pain, stiffness, and physical function using a 48 hour recall period. For WOMAC, the VA scales were (best) 0-100 (worst). Safety analyses were conducted on all patients randomized into the trial. At week 12 visits, adverse events (AE) were recorded. The differences between baseline and week 12 were used to analyze changes in WOMAC scores. Statistical significance was assumed at p<0.05. The effect size was calculated by dividing the mean change from baseline with the standard deviation at baseline. Percent improvement was calculated by dividing week 12 change scores by baseline scores.

[2] = test system: patients with primary osteoarthritis (OA) of the knee; assay: Same 12-week study; safety analysis, incidence of drug-related adverse events
Procedure: as §1

[3] = mean change from baseline divided by the standard deviation at baseline, week 12
[4] = mean, WOMAC VA scale (best) 0-100 (worst), 12 weeks, 3 times daily, n = 36
[5] = week 12 change score divided by baseline score
[6] = both, human, in vivo, po, 12 weeks

O=C(O)Cc1ccccc1Nc1c(Cl)cccc1Cl [Oral Diclofenac, diclofenac]
WOMAC Pain, Effect size [1, 3]: 1.04 | WOMAC Physical Function, Effect size [1, 3]: 0.99 | WOMAC Stiffness, Effect size [1, 3]: 0.90 | WOMAC Pain, Baseline - week 12 change score [1, 4]: −22.87 | WOMAC Physical Function, Baseline - week 12 change score [1, 4]: −21.87 | WOMAC Stiffness, Baseline - week 12 change score [1, 4]: −21.65 | WOMAC Pain, % Improvement [1, 5]: 48.77% | WOMAC Physical function, % Improvement [1, 5]: 45.91% | WOMAC Stiffness, % Improvement [1, 5]: 44.86% | Erythema (application site adverse event), number of patients ([2]; 12 weeks, n = 36, oral diclofenac group used placebo cream): One | severity of dry skin at application site ([2]; all cases): mild and transient | Abdominal pain (GI adverse event), number of patients ([2]; both, human, in vivo, 12 weeks): 8 | Constipation (GI adverse event), incidence ([2]; both, human, in vivo, 12 weeks): (8.3%) | Constipation (GI adverse event), number of patients ([2]; both, human, in vivo, 12 weeks): 3 | Diarrhea (GI adverse event), incidence ([2]; both, human, in vivo, 12 weeks): (16.7%) | Diarrhea (GI adverse event), number of patients ([2]; both, human, in vivo, 12 weeks): 6 | Dyspepsia (GI adverse event), incidence ([2]; both, human, in vivo, 12 weeks): (25.0%) | Dyspepsia (GI adverse event), number of patients ([2]; both, human, in vivo, 12 weeks): 9 | Edema (other adverse event), number of patients ([2]; both, human, in vivo, 12 weeks): 3 | Flatulence (GI adverse event), incidence ([2]; both, human, in vivo, 12 weeks): (16.7%) | Flatulence (GI adverse event), number of patients ([2]; both, human, in vivo, 12 weeks): 6 | Headache (other adverse event), number of patients ([2]; both, human, in vivo, 12 weeks): 2 | Nausea (GI adverse event), incidence ([2]; both, human, in vivo, 12 weeks): (11.1%) | Nausea (GI adverse event), number of patients ([2]; both, human, in vivo, 12 weeks): 4 | time to resolution of mild redness (erythema) ([2]; both, human, in vivo, 12 weeks): ≤ 24 h | Blisters (application site adverse event), incidence [2, 6]: (0.0%) | Blisters (application site adverse event), number of patients [2, 6]: 0 | Dry Skin (application site adverse event), number of patients [2, 6]: 1 | Erythema (application site adverse event), number of patients [2, 6]: 1 | Pruritis (application site adverse event), incidence [2, 6]: (0.0%) | Pruritis (application site adverse event), number of patients [2, 6]: 0
